For data set [1], the system named is RASMC proliferation stimulated with PDGF-BB.
Method: (§1) For this test rat vascular smooth muscle cells (RASMC) primary cultures, obtained from adult male Wistar Rats, were used according to well known procedures (Facchiano et al., 2000, J. Cell Sci., 113(16), 2855-63).
(§2) Proliferation assay was performed, following standard procedures (Facchiano, et al., 2000, Cell Sci., 113(16), 2855-63), on 6-well plates (1×10^5 cells/plate) allowed to grow for 24 hours in DMEM supplemented with 10% Fetal Calf Serum (FCS) at 37° C. in 5% CO2. Medium was replaced with starvation medium containing either DMEM-0.1% BSA for 24 hours. Subsequently the starvation medium was replaced with fresh medium containing either 0.1% BSA alone or 0.1% BSA with PDGF-BB in the presence or absence of the RGD-analog. Every assay was carried out at different time intervals and cells were harvested and counted with hemacytometer.
Data set [2] relates to RASMC migration toward PDGF-BB. In words: Migration assay in modified Boyden chambers toward PDGF-BB. The class given is cell-based, rat. The conditions noted are these: FIG. 2; PDGF-BB 10 ng/ml as chemoattractant. How it is done:
Rat vascular smooth muscle cells (RASMC) were placed in the upper chamber of the Boyden apparatus. […] Cell migrated on the bottom face of the filters were counted at 400× magnification. Fifteen fields were counted for each filter and the average number of cells/field was calculated. Experiments were performed at least 4 times in duplicate.

Data set [3] has as its system RASMC proliferation stimulated with PDGF-BB. Kind of data set: Proliferation assay (PDGF-BB stimulated RASMC, cell counting). The conditions noted are these: FIG. 3.
Method: as §1, §2

Each structure is given as a SMILES string. Read-outs that look alike come from different tables or passages of the source.

For `NC(N)=NCCC[C@H](N)C(=O)NCC(=O)N[C@@H](CC(=O)O)C(=O)N[C@@H](CO)C(=O)O` [RGDS], the “toxic effects on cells” value in data set [1] is “do not show toxic effects”.
`N=C(N)NCCC[C@H](NC(=O)[C@@H](Cc1ccccc1)NC(=O)[C@H](CCCNC(=N)N)NC(=O)CC(=O)N[C@@H](CC(=O)O)C(N)=O)C(N)=O` [non-peptidic RGD-analog, H2N—RfRmD—NH2]: the “inhibition of RASMC migration toward PDGF-BB gradient” value in data set [2] is on record as “in a dose-dependent manner”. In addition, in data set [3] (100 ng/ml, stimulated for 48 hours with PDGF-BB (10 ng/ml)), the “anti-proliferative effect (inhibition of RASMC proliferation)” value is reported as “marked anti-proliferative effect”. Further, the “toxic effects on cells” value in data set [3] (added to cells in the absence of PDGF-BB) is “do not show toxic effects”.

The record behind these values is patent publication US6627769B2, “RGD-analog non-peptidic molecules having anti-adhesive, anti-migration and anti-proliferative effects” (Provincia Italiana Della Congregzaione dei Figli …, priority 2001, dated 2003).
